These are literature values, as cited in US20100172990A1, “BIOCOMPATIBLE MICROGELS AND APPLICATIONS THEREOF” (UNIVERSIDAD DEL PAIS VASCO, priority 2007, published 2010).

For this data set the following is noted: at 55° C.

Consider `C=CN1CCCCCC1=O` [VCL, N-vinylcaprolactam], for which the solubility in water result is listed as “approximately 88 g/L”.
